Experiments:
HT-29 cancer cell line = assay: Cytotoxicity assay, HT-29; type: cell-based, human; details: highest concentration tested 33 µM
[1] = tested on: MDA-MB-435 cancer cell line; assay: Cytotoxicity assay, MDA-MB-435; type: cell-based, human; details: highest concentration tested 33 µM
elastase = assay: Protease inhibition assay, elastase; type: biochemical; details: highest concentration tested 13 µM
trypsin = assay: Protease inhibition assay, trypsin; type: biochemical; details: highest concentration tested 13 µM
chymotrypsin = assay: Protease inhibition assay, chymotrypsin; type: biochemical; details: highest concentration tested 13 µM
Mycobacterium smegmatis = assay: Growth inhibition assay, M. smegmatis; type: cell-based; details: highest concentration tested 50 µg/mL
Staphylococcus aureus = assay: Growth inhibition assay, S. aureus; type: cell-based; details: highest concentration tested 50 µg/mL
Escherichia coli = assay: Growth inhibition assay, E. coli; type: cell-based; details: highest concentration tested 50 µg/mL
Candida albicans = assay: Growth inhibition assay, C. albicans; type: cell-based; details: highest concentration tested 50 µg/mL
[2] = tested on: Mycobacterium tuberculosis; details: highest concentration tested 50 µg/mL

cyclo[L-Val2-L-Ser-L-Ile-L-Asn-L-Val1-L-Phe-L-Pro-] [Microseiramide (1)]
no activity was observed: cytotoxicity (HT-29 cancer cell line) | cytotoxicity [1] | protease inhibition (elastase) | protease inhibition (trypsin) | protease inhibition (chymotrypsin) | growth inhibition (Mycobacterium smegmatis) | growth inhibition (Staphylococcus aureus) | growth inhibition (Escherichia coli) | growth inhibition (Candida albicans) | growth inhibition [2]
